The text below walks through data of patent publication US10519134B2, “Pyrazole compounds and methods of making and using same” (Lundbeck La Jolla Research Center, Inc., priority 2015, dated 2019).

The target in test [1] is T1, FAAH (Mus musculus, UniProt O08914).
T1 construct: Proteomes (mouse brain membrane fraction or cell lysates); from tissue; host or cells: mouse brain membrane fraction (or cell lysates)
T1 sequence (O08914 1-579): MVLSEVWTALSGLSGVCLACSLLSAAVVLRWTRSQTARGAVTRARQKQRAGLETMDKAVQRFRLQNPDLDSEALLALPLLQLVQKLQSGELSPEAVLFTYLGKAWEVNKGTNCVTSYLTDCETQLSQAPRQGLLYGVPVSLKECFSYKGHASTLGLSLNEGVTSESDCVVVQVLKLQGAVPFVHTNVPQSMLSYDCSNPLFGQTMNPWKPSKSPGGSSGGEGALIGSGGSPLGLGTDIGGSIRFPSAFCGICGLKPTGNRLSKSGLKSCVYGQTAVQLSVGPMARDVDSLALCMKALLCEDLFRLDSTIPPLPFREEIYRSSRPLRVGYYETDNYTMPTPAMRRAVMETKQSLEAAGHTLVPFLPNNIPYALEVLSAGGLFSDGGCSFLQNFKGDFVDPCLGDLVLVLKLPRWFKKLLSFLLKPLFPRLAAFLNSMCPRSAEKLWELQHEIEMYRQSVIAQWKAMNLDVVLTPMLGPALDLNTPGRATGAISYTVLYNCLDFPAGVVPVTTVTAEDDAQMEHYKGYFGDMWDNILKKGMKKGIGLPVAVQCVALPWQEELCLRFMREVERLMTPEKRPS
Put plainly: In vitro competitive activity-based protein profiling (mouse), FAAH gel band. In kind it is biochemical. To be noted: for inhibition at 1 µM: read-out: FAAH % inh. 1 μM; for IC50: mouse. An outline of the steps:
(§1)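 Mouse brain membrane proteome or cell lysate (1.0 mg/mL protein) preincubated 30 min at 37 °C with varying inhibitor concentrations, then labelled 30 min at 37 °C with FP-Rh or HT-01 probe (50 μM stock). After SDS-PAGE, activity taken from fluorescent intensity of the MAGL and FAAH gel bands.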

The target of test [2] is T2, MAGL (Homo sapiens, UniProt Q99685).
T2 construct: Proteomes (human prefrontal cortex or cell membrane fractions); from tissue; host or cells: human prefrontal cortex (or cell membrane fractions)
T2 sequence (Q99685 1-303): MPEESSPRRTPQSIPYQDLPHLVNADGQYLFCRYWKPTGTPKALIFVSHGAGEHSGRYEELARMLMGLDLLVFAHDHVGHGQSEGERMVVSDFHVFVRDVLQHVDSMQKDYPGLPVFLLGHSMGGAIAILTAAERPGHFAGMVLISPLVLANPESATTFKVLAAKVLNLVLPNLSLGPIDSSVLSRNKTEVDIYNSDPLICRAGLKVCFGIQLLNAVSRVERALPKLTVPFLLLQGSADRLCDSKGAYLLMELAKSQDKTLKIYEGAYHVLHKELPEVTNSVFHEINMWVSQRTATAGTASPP
Put plainly: In vitro competitive activity-based protein profiling (human), MAGL gel band. In kind it is biochemical. The procedure: In Vitro Competitive Activity-Based Protein Profiling (Human).
Proteomes (human prefrontal cortex or cell membrane fractions) (50 μL, 1.0-2.0 mg/mL total protein concentration) were preincubated with varying concentrations of inhibitors at 37° C. After 30 min, FP-Rh or JW912 (1.0 μL, 50 μM in DMSO) was added and the mixture was incubated for another 30 min at room temperature. Reactions were quenched with SDS loading buffer (15 μL—4×) and run on SDS-PAGE. Following gel imaging, serine hydrolase activity was determined by measuring fluorescent intensity of gel bands corresponding to MAGL using ImageJ 1.49k software.

For test [3], the target named is T3, MAGL (Mus musculus, UniProt O35678).
T3 construct: Proteomes (mouse brain membrane fraction or cell lysates); from tissue; host or cells: mouse brain membrane fraction (or cell lysates)
T3 sequence (O35678 1-303): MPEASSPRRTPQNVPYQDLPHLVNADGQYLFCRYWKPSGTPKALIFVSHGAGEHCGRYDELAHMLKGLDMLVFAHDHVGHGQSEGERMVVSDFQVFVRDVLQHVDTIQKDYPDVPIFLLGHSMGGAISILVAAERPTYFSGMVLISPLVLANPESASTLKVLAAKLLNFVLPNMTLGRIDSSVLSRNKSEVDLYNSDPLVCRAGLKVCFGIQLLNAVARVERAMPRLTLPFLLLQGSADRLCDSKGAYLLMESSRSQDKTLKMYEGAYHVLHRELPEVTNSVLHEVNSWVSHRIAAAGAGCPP
Put plainly: In vitro competitive activity-based protein profiling (mouse), MAGL gel band. The class given is biochemical. To be noted: for inhibition at 1 µM: read-out: MAGL % inh. 1 μM; for IC50: mouse. An outline of the steps: as §1

Test [4] addresses T3, MAGL. In words: Mouse brain proteomes from inhibitor treated mice (oral gavage, sacrificed 4 h after administration). The class given is in vivo. To be noted: read-out: MAGL % inh. 5 mg/kg. An outline of the steps: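 Wild-type C57Bl/6J mice got compound by oral gavage in polyethylene glycol vehicle. Brain proteomes were prepared 4 h after dosing and analyzed for serine hydrolase activity.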

For `CS(=O)(=O)Nc1ccn(C(=O)N2CCN(Cc3ccc(C(F)(F)F)cc3-c3ncon3)CC2)n1` [Example 112, N-(1-(4-(2-(1,2,4-oxadiazol-3-yl)-4-(trifluoromethyl)benzyl)piperazine-1-carbonyl)-1H-pyrazol-3-yl)methanesulfonamide], the inhibition at 1 µM in test [1] was 0 to 25%; in test [3], at least 75%. The same compound had an IC50 in test [2] of at most 100 nM.

Regarding `CS(=O)(=O)Nc1ccn(C(=O)N2CCN(Cc3ccc(C(F)(F)F)cc3-c3nnco3)CC2)n1` [Example 113, N-(1-(4-(2-(1,3,4-oxadiazol-2-yl)-4-(trifluoromethyl)benzyl)piperazine-1-carbonyl)-1H-pyrazol-3-yl)methanesulfonamide], the inhibition at 1 µM in test [1] is 0 to 25%; in test [3], at least 75%. The compound also came in with a 50% inhibitory concentration (IC50) in test [2] of 100 to 1000 nM.

As for `CS(=O)(=O)Nc1ccn(C(=O)N2CCN(Cc3ccc(C(F)(F)F)cc3N3CCN(C(=O)CO)CC3)CC2)n1` [Example 116, N-(1-(4-(2-(4-(2-hydroxyacetyl)piperazin-1-yl)-4-(trifluoromethyl)benzyl)piperazine-1-carbonyl)-1H-pyrazol-3-yl)methanesulfonamide], the inhibition at 1 µM in test [1] was 0 to 25%; in test [3], at least 75%. In test [2], this compound had an IC50 of at most 100 nM.

`CS(=O)(=O)Nc1ccn(C(=O)N2CCN(Cc3ccc(C(F)(F)F)cc3C3CCN(CC(=O)O)CC3)CC2)n1` [Example 118, 2-(4-(2-((4-(3-(methylsulfonamido)-1H-pyrazole-1-carbonyl)piperazin-1-yl)methyl)-5-(trifluoromethyl)phenyl)piperidin-1-yl)acetic Acid]: the inhibition at 1 µM is 0 to 25% in test [1]; 25% in test [2] (at 1 μM, read-out: MAGL human % inh at 1 μM); 0 to 25% in test [3].

Take `CS(=O)(=O)Nc1ccn(C(=O)N2CCN(Cc3cccc(-c4cccnc4)c3)CC2)n1` [Example 120, N-(1-(4-(3-(pyridin-3-yl)benzyl)piperazine-1-carbonyl)-1H-pyrazol-3-yl) methanesulfonamide]: the IC50 in test [1] was 1000 to 10000 nM; in test [2], at most 100 nM; in test [3] it was 100 to 1000 nM. Besides, the inhibition at 1 µM was 0 to 25% in test [1] and at least 75% in test [3].

As to `Cc1ccc(CN2CCN(C(=O)n3ccc(NS(C)(=O)=O)n3)CC2)c(N2CCCC2)c1` [Example 137, N-(1-(4-(4-methyl-2-(pyrrolidin-1-yl)benzyl)piperazine-1-carbonyl)-1H-pyrazol-3-yl) methanesulfonamide], the half-inhibitory concentration (IC50) in test [1] is 1000 to 10000 nM; in test [2] it was at most 100 nM; in test [3], 100 to 1000 nM. The inhibition at 1 µM in test [1] was 0 to 25%; in test [3], at least 75%.

With `CS(=O)(=O)Nc1ccn(C(=O)N2CCN(Cc3ccc(C(F)(F)F)cc3N3CCOCC3)CC2)n1` [Example 140, N-(1-(4-(2-morpholino-4-(trifluoromethyl)benzyl)piperazine-1-carbonyl)-1H-pyrazol-3-yl) methanesulfonamide], the values for the IC50 in test [1], in test [2] and in test [3] were 1000 to 10000 nM, at most 100 nM and 100 to 1000 nM, respectively. Also, the inhibition at 1 µM was 0 to 25% in test [1] and at least 75% in test [3].

Turning to `CS(=O)(=O)Nc1ccn(C(=O)N2CCC3(CCCN3Cc3ccc(N4CCCC4)c(C(F)(F)F)c3)CC2)n1` [Example 159, N-(1-(1-(4-(pyrrolidin-1-yl)-3-(trifluoromethyl)benzyl)-1,8-diazaspiro[4.5]decane-8-carbonyl)-1H-pyrazol-3-yl) methanesulfonamide], the inhibition at 1 µM in test [1] is 0 to 25%; in test [3], at least 75%. The IC50 in test [2] fell in the range of 100 to 1000 nM.

For `CS(=O)(=O)Nc1ccn(C(=O)N2CCN(Cc3ccc(N4CCCC4)c(Cl)c3)CC2)n1` [Example 166, N-(1-(4-(3-chloro-4-(pyrrolidin-1-yl)benzyl)piperazine-1-carbonyl)-1H-pyrazol-3-yl) methanesulfonamide], the inhibition at 1 µM was 0 to 25% in test [1] and at least 75% in test [3]. The same compound yielded an IC50 in test [2] of at most 100 nM.

For the compound `CS(=O)(=O)Nc1ccn(C(=O)N2CCN(Cc3ccc(N4CCOCC4)c(C(F)(F)F)c3)CC2)n1` [Example 167, N-[1-[(4-[[4-(morpholin-4-yl)-3-(trifluoromethyl)phenyl]methyl]piperazin-1-yl)carbonyl]-1H-pyrazol-3-yl] methanesulfonamide], the inhibition at 1 µM in test [1] is 0 to 25%; in test [3], at least 75%. In test [2], this compound gave an IC50 of at most 100 nM.

With `CS(=O)(=O)Nc1ccn(C(=O)N2CCN(Cc3ccc(C(F)(F)F)cc3N3CCN(C(N)=O)CC3)CC2)n1` [Example 171, 4-(2-((4-(3-(methylsulfonamido)-1H-pyrazole-1-carbonyl)piperazin-1-yl)methyl)-5-(trifluoromethyl)phenyl)piperazine-1-carboxamide], the inhibition at 1 µM is 0 to 25% in test [1] and at least 75% in test [3]. In test [2], this compound displayed an IC50 of at most 100 nM.

Take `CS(=O)(=O)Nc1ccn(C(=O)N2CCN(Cc3ccc(C(F)(F)F)cc3N3CCN(C4CC4)CC3)CC2)n1` [Example 172, N-(1-(4-(2-(4-cyclopropylpiperazin-1-yl)-4-(trifluoromethyl)benzyl)piperazine-1-carbonyl)-1H-pyrazol-3-yl) methanesulfonamide]: the inhibition at 1 µM in test [1] is 0 to 25%; in test [3], at least 75%. The compound further came in with an IC50 in test [2] of at most 100 nM.

On to `CS(=O)(=O)Nc1ccn(C(=O)N2CCN(Cc3ccc(C(F)(F)F)cc3N3CCN(S(C)(=O)=O)CC3)CC2)n1` [Example 173], for which the inhibition at 1 µM was 0 to 25% in test [1] and at least 75% in test [3]. The compound also displayed an IC50 in test [2] of at most 100 nM.

Take `CC(=O)N1CCN(c2cc(C(F)(F)F)ccc2CN2CCN(C(=O)n3ccc(NS(C)(=O)=O)n3)CC2)CC1` [Example 174, N-(1-(4-(2-(4-acetylpiperazin-1-yl)-4-(trifluoromethyl)benzyl)piperazine-1-carbonyl)-1H-pyrazol-3-yl) methanesulfonamide]: the values for the inhibition at 1 µM in test [1] and in test [3] were 0 to 25% and at least 75%, respectively. Moreover, the IC50 in test [2] was at most 100 nM.

For `CS(=O)(=O)Nc1ccn(C(=O)N2CCC3(CCCN3Cc3ccc(C(F)(F)F)cc3N3CCC(F)CC3)CC2)n1` [Example 178, N-(1-(1-(2-(4-fluoropiperidin-1-yl)-4-(trifluoromethyl)benzyl)-1,8-diazaspiro[4.5]decane-8-carbonyl)-1H-pyrazol-3-yl) methanesulfonamide], the results for the inhibition at 1 µM in test [1] and in test [3] were 0 to 25% and at least 75%, respectively. This compound yielded a half-inhibitory concentration (IC50) in test [2] of at most 100 nM.

On to `CS(=O)(=O)Nc1ccn(C(=O)N2CCN(Cc3cccc(Cl)c3N3CCC4(CCOCC4)C3)CC2)n1` [Example 290, N-(1-(4-(3-chloro-2-(8-oxa-2-azaspiro[4.5]decan-2-yl)benzyl)piperazine-1-carbonyl)-1H-pyrazol-3-yl) methanesulfonamide], for which, in test [1], the IC50 was 1000 to 10000 nM and the inhibition at 1 µM lay within 0 to 25%. In test [3], the half-maximal inhibitory concentration (IC50) is at most 100 nM and the inhibition at 1 µM is at least 75%. Also, the inhibition at 5 mg/kg in test [4] was 50 to 75%.
